Assays:
[1] = In vivo xenograft study, MDA-MB-468, mice weights; details: MDA-MB-468 xenograft in BALB/c-nu mice, FIGS. 3 and 5
Procedure: (§1) MDA-MB-468 cells (human breast cancer) in its log growth phase were implanted in BALB/c-nu mice. When the tumor volume was approximately 50-150 mm^3, the mice were randomized into four groups, each include 8 mice. The four groups were treated with vehicle, Ref. 1, 4f, and Ref. 2, respectively, and the tumor sizes were measured two to three times each week and the mice were also weighted.

MV-4-11 = test: Cytotoxicity assay by the CTG method, MV-4-11; format: cell-based; details: Homo sapiens, MV4-11, MV-4-11, Leukemia, 72 h
Procedure: (§2) The corresponding cells were harvested from flask into cell culture medium and the cell number were counted. The cells were diluted with culture medium to the desired density and 40 μL of cell suspension was added into each well of 384-well cell culture plate as designated. The plates were covered with lid and placed in room temperature for 30 minutes without shaking and then were transferred plates into 37° C. 5% CO2 incubator overnight for cell attachment.
(§3) Compound preparation and treatment: Test compounds were received or dissolved at 30 mM stock solution and control compound Staurosporine was stored as 10 mM and 1 mM concentration. 45 uL of stock solution was transferred to a 384 pp-plate. 3 fold, 10-point dilution were performed via transferring 15 uL compound into 30 μL DMSO by using TECAN (EVO200) liquid handler. The plates were spun at room temperature at 1,000 RPM for 1 minute and shaken at a plate shaker for 2 minutes. […]
(§4) The plate from incubators were placed and equilibrated at room temperature for 15 minutes. […] 40 μL of CellTiter-Glo reagent were transferred into each well to be detected (at 1:1 to culture medium). Then the plates were placed at room temperature for 30 min followed by reading on EnSpire.
(§5) The inhibition activity was calculated following the formula below: […]
(§6) The IC50 were calculated by fitting the Curve using Xlfit (v5.3.1.3): […]

ZR-75-1 = test: Cytotoxicity assay by the CTG method, ZR-75-1; format: cell-based; details: Homo sapiens, ZR-75-1, Breast cancer, 72 h
Procedure: as §2, §3, §4, §5, §6

U87MG = test: Cytotoxicity assay by the CTG method, U87MG; format: cell-based; details: Homo sapiens, U-87 MG, Glioblastoma, 72 h
Procedure: as §2, §3, §4, §5, §6

MDA-MB-468 cell line = test: Anti-tumor activity against MDA-MB-468 cell line (CCK-8 test); format: cell-based; details: Homo sapiens, MDA-MB-468, 72 h
Procedure: A cryo tube was removed from liquid nitrogen. As quickly as possible, the cells were thawed by placing the vial in a 37° C. water bath and gently shaking the vials. The cells were transferred to medium tube, which containing 5 mL medium, and were centrifuged at 1000 rpm for 6 min. The supernatant containing dead cells and cell debris was discarded. 1 mL of pre-warmed medium with 10% FBS was add and the solution was re-suspended. The plate was placed in 37° C. and 5% CO2 incubator. The medium was changed next day.
Cells in logarithmic growth stage were taken and culture medium was discarded. 1 mL 0.25% trypsin solution was added for twice. The trypsin solution was removed and the 0.5 ml 0.25% trypsin solution was added to the cell flask. The plate was placed in 37° C. and 5% CO2 incubator for a few minutes until the cells recovered. 1 mL medium was added to stop digestion. The liquid was transferred by pipette for experiment.
the cells were suspended and the medium was discarded. 1 mL 0.25% trypsin solution was added for twice and the trypsin digestion was centrifuged. The cells were suspended with the culture medium, count and adjusted to the appropriate concentration.
The cell suspension was added to the 96-well plate with a volume of 100 uL per well, as shown in Tab. 5, and was placed in 37° C., 5% CO2 incubator overnight.
Preparation of Compounds Working Solution.
The test compounds were dissolved in DMSO at 10 mM with sterile filter (0.22 um, nelon, JET). After filtering, the solution were continuously diluted by three times with DMSO. A total of six concentration were prepared, as shown below.
6 uL compound solution was added to 594 uL medium and the solution was added to 96-well plate as shown and cultured for 72 h in CO2 incubator.
A CCK-8 solution was prepared according to the instructions and the 96-well plate was taken out and the original medium discarded. 100 uL cck-8 solution was added to each well in the 96-well plate. Photoabsorption data were read by TECAN enzyme marker after a period of time.
IC (%)=[Ac-As]/[Ac-Ab]*100% • As: Experimental well (containing culture medium, cell, CCK-8 and compound); • Ac: Controlled well (containing culture medium, cell and CCK-8); • Ab: Blank well (Only containing medium and CCK-8).

LoVo = test: Cytotoxicity assay by the CTG method, LoVo; format: cell-based; details: Homo sapiens, Colon cancer, 72 h
Procedure: as §2, §3, §4, §5, §6

Hep3B = test: Cytotoxicity assay by the CTG method, Hep3B; format: cell-based; details: Homo sapiens, Liver cancer, 72 h
Procedure: as §2, §3, §4, §5, §6

PC-3 = test: Cytotoxicity assay by the CTG method, PC-3; format: cell-based; details: Homo sapiens, PC-3, Prostate cancer, 72 h
Procedure: as §2, §3, §4, §5, §6

MDA-MB-453 = test: Cytotoxicity assay by the CTG method, MDA-MB-453; format: cell-based; details: Homo sapiens, MDA-MB-453, Breast cancer, 72 h
Procedure: as §2, §3, §4, §5, §6

A549 = test: Cell culture and cytotoxicity assay (CTG), A549; format: cell-based; details: Homo sapiens, A549, exposure 72 hours
Procedure: The assayed compounds each was dissolved in DMSO with a final concentration of 10 mM or 40 mM and stored at −20° C. Tumor cell lines A549 (7,000 cells/well), BT474 (12,000 cells/well), MDA-MB-468 (12,000 cells/well), and HCC1937 (6,000 cells/well) were seeded on 96-well plates. And the cells were pre-incubated at 37° C./5% CO2 for 24 hours. The cells were exposed to different concentrations of the assay compounds (from 400 μM to 782 nM, from 200 μM to 391 nM, from 100 μM to 196 nM, and from 50 μM to 98 nM) for the following time:
After incubation, 100 μL from each well was discarded and CTG base (Proega, G7571, 50 μL) was added and the mixture was agitated for 2 minutes. The mixtures were stored in a dark room for 10 minutes and the viability was analyzed with Multiskan microplate reader.

OVCAR-3 = test: Cytotoxicity assay by the CTG method, OVCAR-3; format: cell-based; details: Homo sapiens, OVCAR-3, Ovarian cancer, 72 h
Procedure: as §2, §3, §4, §5, §6

[2] = test system: MDA-MB-468 cells (human breast cancer) implanted in BALB/c-nu mice; test: In vivo xenograft study, MDA-MB-468, tumor sizes; details: MDA-MB-468 xenograft in BALB/c-nu mice, FIGS. 2 and 4
Procedure: as §1

Question: Which “weight changes of mice” value [1] does the source give for `Cc1ccc(S(=O)(=O)Nc2nc3ccccc3nc2Nc2ccc3nsnc3c2)cc1F` [Compound 4f, N-[3-(benzo[1,2,5]thiadiazol-5-ylamino)-quinoxalin-2-yl]-3-fluoro-4-methyl-benzenesulfonamide] here?
Answer: no significant weight changes

Question: And the IC50 (MV-4-11)?
Answer: 6.8 µM

Question: What about the IC50 (ZR-75-1) of the same compound?
Answer: 1.53 µM

Question: And the IC50 (U87MG)?
Answer: 18 µM

Question: And the IC50 (MDA-MB-468 cell line)?
Answer: 0.912 µM

Question: And the IC50 (LoVo)?
Answer: 21.7 µM

Question: And the IC50 (Hep3B)?
Answer: 3.97 µM

Question: What about the IC50 (PC-3) of the same compound?
Answer: 6.05 µM

Question: What about the IC50 (MDA-MB-453) of the same compound?
Answer: 1.5 µM

Question: What about the IC50 (A549) of the same compound?
Answer: 25000 to 50000 nM

Question: What about the IC50 (OVCAR-3) of the same compound?
Answer: 6.68 µM

Question: And the “anticancer activity (tumor sizes) versus vehicle” value [2]?
Answer: significant anticancer activities

From patent US20200223839A1, “FLUORO-CONTAINING COMPOUNDS, USE AND PREPARATION THEREOF” (JIANGSU YINGKEBEITA YIYAOKEJI CO. LTD, priority 2017, published 2020)
